Earlier results as cited in patent publication US6515198B2, “Use of purinergic receptor modulators and related reagents” (Syntex (U.S.A.) LLC, priority 2000, dated 2003).

Test system: bladder sensory afferents
Settings: agents capable of desensitizing P2X3 receptor subunit responses

Structure (SMILES)	effect on the activity of bladder sensory afferents
Cc1ccc(C(=O)Nc2ccc(S(=O)(=O)O)c3cc(S(=O)(=O)O)cc(S(=O)(=O)O)c23)cc1NC(=O)c1cccc(NC(=O)Nc2cccc(C(=O)Nc3cc(C(=O)Nc4ccc(S(=O)(=O)O)c5cc(S(=O)(=O)O)cc(S(=O)(=O)O)c45)ccc3C)c2)c1 [suramin]	decrease the activity of bladder sensory afferents
Nc1ncnc2c1ncn2[C@@H]1O[C@H](COP(=O)(O)CP(=O)(O)OP(=O)(O)O)[C@@H](O)[C@H]1O [αβ-ATP]	decrease the activity of bladder sensory afferents
